From patent US7141560B2, “Alanine 2,6-dialkoxyphenyl ester derivatives as hypnotics” (Akzo Nobel N.V., priority 2001, dated 2006) come the findings set out here.

In the first assay the test system is mice. Briefly: Hypnotic activity: loss of righting reflex after intravenous injection in mice. It is filed as in vivo. To be noted: Mus musculus, intravenous injection over 10 seconds, dose causing loss of righting reflex for minimum 30 seconds in 50% of treated mice, read-out: HD50 (hypnotic dose50). The method, then: The hypnotic potency of the alanine 2,6-dialkoxyphenyl ester derivatives of the invention was determined upon their intravenous administration in mice. The dose required to cause a loss of righting reflex for a minimum period of 30 seconds in 50% of treated mice after intravenous injection over 10 seconds was determined. This dose is termed the HD50 (hypnotic dose50) and is expressed in μmol.kg^−1. These in vivo experiments were carried out as described in detail by Anderson et al., J. Med. Chem. 1997, 40, 1668–1681.
As for `COc1cccc(OC)c1OC(=O)C(CCN1CCOCC1)N1CCOCC1` (stereo not shown) [Example 21a, 2,4-Di-(4-morpholinyl)butanoic acid, 2,6-dimethoxyphenyl ester], the ED50 is 50 µmol/kg.

In the case of `COCCC(C(=O)Oc1c(OC)cc(C)cc1OC)N1CCOCC1` (stereo not shown) [Example 10i, 4-Methoxy-2-[4-morpholinyl]butyric acid, 2,6-dimethoxy-4-methylphenyl ester], the ED50 came out at 36 µmol/kg.

For `COc1cccc(OC)c1OC(=O)C(CN1CCSCC1)N1CCSCC1` (stereo not shown) [Example 18a, 2,3-Di-(N-thiomorpholinyl)propanoic acid, 2,6-dimethoxyphenyl ester], the ED50 came to 15 µmol/kg.

The assay is the same for the next values; noted with them: intravenous injection over 10 seconds, dose causing loss of righting reflex for minimum 30 seconds in 50% of treated mice.
As to `CCOCCN(CCOCC)C(CCOC)C(=O)Oc1c(OC)cccc1OC` (stereo not shown) [Example 10g, 2-[N-(Bis(2-ethoxyethyl)amino)]-4-methoxybutyric acid, 2,6-dimethoxyphenyl ester], the “HD50 (hypnotic dose50)” value was found to be 28 µmol/kg.

With `COc1cccc(OC)c1OC(=O)C(CN1CCOCC1)N1CCc2ccccc2C1` (stereo not shown) [Example 19b, 3-(4-Morpholinyl)-2-(1,2,3,4-tetrahydroisoquinoline)propanoic acid, 2,6-dimethoxyphenyl ester], the “HD50 (hypnotic dose50)” value came to 29 µmol/kg.

Regarding `COCCN(CCOC)C(COC)C(=O)Oc1c(OC)cc(C)cc1OC` (stereo not shown) [Example 4a, 2-[N-Bis(2-methoxyethyl)amino]-3-methoxypropionic acid, 2,6-dimethoxy-4-methylphenyl ester], the “HD50 (hypnotic dose50)” value worked out at 28 µmol/kg.

Take `COC(=O)CCC(C(=O)Oc1c(OC)cc(C)cc1OC)N1CCCC1.Cl` (stereo not shown) [Example 49a, Pentanedioic acid, 2-(1-pyrrolidinyl)-, 1-(2,6-dimethoxy4-methylphenyl)-ester, 5-methyl ester hydrochloride (1:1) salt]: the “HD50 (hypnotic dose50)” value was found to be 50 µmol/kg.

As for `COC(=O)CCC(C(=O)Oc1c(OC)cccc1OC)N1CCSCC1.Cl` (stereo not shown) [Example 47c, Pentanedioic acid, 2-(N-thiomorpholinyl)-, 1-(2,6-dimethoxyphenyl)ester, 5-methyl ester hydrochloride (1:1) salt], the “HD50 (hypnotic dose50)” value was found to be 44 µmol/kg.

For the compound `COCC(C(=O)Oc1c(OC)cccc1OC)N1CCCOCC1` (stereo not shown) [Example 3a, 2-[4-(Hexahydro-1-oxazepinyl)]-3-methoxypropionic acid, 2,6-dimethoxyphenyl ester], the “HD50 (hypnotic dose50)” value was found to be 30 µmol/kg.

`COCCC(C(=O)Oc1c(OC)cccc1OC)N(CCOC)CCOC` (stereo not shown) [Example 10h, 2-[N-(Bis(2-methoxyethyl)amino)]-4-methoxybutyric acid, 2,6-dimethoxyphenyl ester]: the “HD50 (hypnotic dose50)” value is 27 µmol/kg.

As for `CCOCCN(CCOCC)C(CCC(=O)OC)C(=O)Oc1c(OC)cc(C)cc1OC.Cl` (stereo not shown) [Example 50], the “HD50 (hypnotic dose50)” value came to 40 µmol/kg.

`COCCC(C(=O)Oc1c(OC)cc(C)cc1OC)N1CCCOCC1` (stereo not shown) [Example 10j, 2-[4-(Hexahydro-1-oxazepinyl)]-4-methoxybutyric acid, 2,6-dimethoxy-4-methylphenyl ester]: the “HD50 (hypnotic dose50)” value worked out at 25 µmol/kg.

For `COCCN(CCOC)C(COC)C(=O)Oc1c(OC)cccc1OC` (stereo not shown) [Example 3b, 2-[N-Bis(2-methoxyethyl)amino]-3-methoxypropionic acid, 2,6-dimethoxyphenyl ester], the “HD50 (hypnotic dose50)” value turned out to be 41 µmol/kg.
